In one assay the target is KAT2A (Homo sapiens (Human), UniProt Q92830). The experiment in a line: KAT2A acetyltransferase biochemical assay (RapidFire mass spectrometry, AcCoA to CoA).
The subject of another assay is H3K9AC (HT1080 cells). The experiment in a line: H3K9AC Sandwich ELISA Assay in HT1080 cells (KAT2A primary cell-based screening assay). Further details: species or system Human. In short, it runs like this:
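Acetylated H3K9 quantified by luminescent sandwich ELISA (total H3 capture, H3K9ac detection) on HCl lysates of HT1080 cells. Cells had 24 h compound exposure at 37 °C, top concentration 10 µM, 10-point 3-fold series, 0.1% DMSO; IC50 from four-parameter fitting.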

The next assay has as its system MM.1S cells. Kind of assay: MM1.S 10 Day Proliferation Assay (CellTiter-Glo). It counts as cell-based, Human. Put shortly: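 MM.1S cells, 500/well in ultra-low-attachment plates, were pre-incubated 16 h, then exposed to a 10-point 1:3 dilution series (top 10 μM final, 0.1% DMSO) for 10 days at 37 °C, with compound-containing medium refreshed at day 5. Viability was read by CellTiter-Glo luminescence; IC50 came from four-parameter fit.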
(In general: ATP-based viability assays read luminescence as a measure of living cells.)

Setting [1] is: read-out: KAT2A Ki at 1 μM AcCoA, 5 μM H3 1-21 peptide, 0.5 nM KAT2A, 90-minute reaction.
Setting [2] is: Homo sapiens, HT-1080, H3K9AC sandwich ELISA.
Where [3] appears, read: KAT2A Ki at 1 μM AcCoA, 5 μM H3 1-21 peptide, 0.5 nM KAT2A, 90-minute reaction.

Read-outs that look alike come from different tables or passages of the source.

Chain of KAT2A (Q92830 whole entry): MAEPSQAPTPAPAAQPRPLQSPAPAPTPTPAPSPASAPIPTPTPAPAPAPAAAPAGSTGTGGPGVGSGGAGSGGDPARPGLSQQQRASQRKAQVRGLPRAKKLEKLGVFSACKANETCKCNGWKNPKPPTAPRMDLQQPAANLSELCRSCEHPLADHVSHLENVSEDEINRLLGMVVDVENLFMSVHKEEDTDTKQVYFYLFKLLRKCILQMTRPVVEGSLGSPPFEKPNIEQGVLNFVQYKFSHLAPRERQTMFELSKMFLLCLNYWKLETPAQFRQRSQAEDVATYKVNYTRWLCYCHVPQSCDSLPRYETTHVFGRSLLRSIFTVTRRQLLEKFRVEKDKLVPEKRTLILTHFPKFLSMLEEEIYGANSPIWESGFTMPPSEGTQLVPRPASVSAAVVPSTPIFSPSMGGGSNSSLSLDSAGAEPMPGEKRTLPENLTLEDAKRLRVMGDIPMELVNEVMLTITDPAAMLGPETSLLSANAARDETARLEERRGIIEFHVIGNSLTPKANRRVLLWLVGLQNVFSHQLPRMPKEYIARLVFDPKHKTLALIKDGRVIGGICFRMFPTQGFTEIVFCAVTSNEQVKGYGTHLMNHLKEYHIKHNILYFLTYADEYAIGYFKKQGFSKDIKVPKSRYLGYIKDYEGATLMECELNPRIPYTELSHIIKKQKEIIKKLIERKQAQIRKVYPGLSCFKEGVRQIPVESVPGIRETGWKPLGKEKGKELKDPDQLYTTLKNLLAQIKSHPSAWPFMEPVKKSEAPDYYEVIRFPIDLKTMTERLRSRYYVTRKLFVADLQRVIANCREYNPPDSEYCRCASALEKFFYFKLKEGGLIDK

For `CCS(=O)(=O)NC(=O)Cc1ccc(O[C@@H]2CC[C@@H](NC(=O)[C@@]3(F)CNC4(CCCC4)C3)C2)c(-c2ccccc2C(C)C)c1` (single isomer, unassigned) [Example C63], at KAT2A (setting [1]), the Ki was found to be 0.08 nM. Also, the IC50 with H3K9AC (HT1080 cells) (setting [2]) amounted to 2.2 nM; in the assay with MM.1S cells (Homo sapiens, MM1.S, 240 h), 5.2 nM.

With `CCc1c(F)cccc1-c1cc(CC(=O)NS(=O)(=O)C(C)C)ccc1O[C@@H]1CC[C@@H](NC(=O)[C@@]2(F)CNCC(C)(C)C2)C1` (single isomer, unassigned) [Example C67], the Ki at KAT2A (setting [1]) amounted to 0.07 nM. Besides, the IC50 in the assay on H3K9AC (HT1080 cells) (setting [2]) came to 4.4 nM; in the assay on MM.1S cells (Homo sapiens, MM1.S, 240 h), 13.8 nM.

With `C[C@@H](C(=O)O)c1ccc(O[C@@H]2CC[C@@H](NC(=O)[C@@H]3CC(C)(C)CN3C)C2)c(-c2cccc(F)c2C2CCC2)c1` (single isomer, unassigned) [Example D13], the Ki at KAT2A (setting [1]) was 10.8 nM. Moreover, the IC50 in the assay on H3K9AC (HT1080 cells) (setting [2]) amounted to 45 nM; in the assay on MM.1S cells (Homo sapiens, MM1.S, 240 h) it was 417 nM.

`C[C@H](C(=O)O)c1ccc(O[C@@H]2CC[C@@H](NC(=O)[C@@H]3CC(C)(C)CN3C)C2)c(-c2cccc(F)c2C2CCC2)c1` (single isomer, unassigned) [Example D14]: the Ki on KAT2A (setting [1]) turned out to be 8.31 nM. The IC50 in the assay with H3K9AC (HT1080 cells) (setting [2]) turned out to be 25.9 nM; with MM.1S cells (Homo sapiens, MM1.S, 240 h), 171 nM.

For the compound `CC(C(=O)NS(C)(=O)=O)c1ccc(O[C@@H]2CC[C@@H](NC(=O)[C@@H]3CC(C)(C)CN3C)C2)c(-c2cccc(F)c2C2CCC2)c1` (single isomer, unassigned) [Example E8], at KAT2A (setting [3]), the affinity, expressed as Ki, was 0.29 nM. The figures for the IC50 in the assay with H3K9AC (HT1080 cells) (setting [2]) and with MM.1S cells were 4.76 nM and 16.4 nM, respectively.

`CC(C(=O)NS(C)(=O)=O)c1ccc(O[C@@H]2CC[C@@H](NC(=O)[C@@H]3CC(C)(C)CN3C)C2)c(-c2cccc(F)c2C2CCC2)c1` (single isomer, unassigned) [Example E9] gave a Ki at KAT2A (setting [3]) of 0.21 nM. Besides, the results for the IC50 in the assay with H3K9AC (HT1080 cells) (H3K9AC sandwich ELISA) and in the assay on MM.1S cells were 3.89 nM and 6.32 nM, respectively.

For the compound `O=C(O)Cc1ccc(OC[C@H]2C[C@H](NC(=O)[C@@]3(F)CNC4(CCC4)C3)C2)c(-c2cccc(F)c2C2CCC2)c1` (single isomer, unassigned) [Example F3, (2′-cyclobutyl-3′-fluoro-6-{[(1r,3r)-3-{[(7ξ)-7-fluoro-5-azaspiro[3.4]octane-7-carbonyl]amino}cyclobutyl]methoxy}[1,1′-biphenyl]-3-yl)acetic acid], the Ki at KAT2A (setting [1]) turned out to be 2.48 nM. For the same compound, the IC50 with H3K9AC (HT1080 cells) (setting [2]) turned out to be 8.5 nM; with MM.1S cells (Homo sapiens, MM1.S, 240 h) it was 94.5 nM.

As to `CCS(=O)(=O)NC(=O)C(C)(C)c1ccc(OC[C@H]2C[C@H](NC(=O)[C@@]3(F)CNC4(CCC4)C3)C2)c(-c2cccc(F)c2C2CCC2)c1` (single isomer, unassigned) [Example G5, (7Rξ)-N-{(1r,3r)-3-[({2′-cyclobutyl-5-[1-(ethanesulfonamido)-2-methyl-1-oxopropan-2-yl]-3′-fluoro[1,1′-biphenyl]-2-yl}oxy)methyl]cyclobutyl}-7-fluoro-5-azaspiro[3.4]octane-7-carboxamide], on KAT2A (setting [1]), the Ki stood at 0.17 nM. For the same compound, the 50% inhibitory concentration (IC50) in the assay on H3K9AC (HT1080 cells) (setting [2]) was 9.5 nM; with MM.1S cells (Homo sapiens, MM1.S, 240 h) it was 36.2 nM.

For `C[C@@H](C(=O)O)c1nn(C)cc1-c1ccc(O[C@@H]2CC[C@@H](NC(=O)[C@]3(F)CNC4(CCC4)C3)C2)c(-c2cccc(F)c2C2CCC2)c1` (single isomer, unassigned) [Example J4], the Ki at KAT2A (setting [1]) was 0.3 nM. For the same compound, the concentration for half-maximal inhibition (IC50) is 18.6 nM in the assay with H3K9AC (HT1080 cells) (H3K9AC sandwich ELISA) and 23.6 nM with MM.1S cells (Homo sapiens, MM1.S, 240 h).

As for `C[C@H](C(=O)O)c1nn(C)cc1-c1ccc(O[C@@H]2CC[C@@H](NC(=O)[C@]3(F)CNC4(CCC4)C3)C2)c(-c2cccc(F)c2C2CCC2)c1` (single isomer, unassigned) [Example J5], the Ki at KAT2A (setting [1]) was found to be 0.19 nM. The IC50 with H3K9AC (HT1080 cells) (setting [2]) stood at 2.76 nM; with MM.1S cells (Homo sapiens, MM1.S, 240 h) it was 21.5 nM.

Turning to `CC(C)n1cc(-c2ccc(O[C@@H]3CC[C@@H](NC(=O)[C@@]4(F)CNC5(CCC5)C4)C3)c(-c3cccc(F)c3C3CCC3)c2)c(C(=O)O)n1` (single isomer, unassigned) [Example J16], the Ki at KAT2A (setting [1]) came to 0.08 nM. Also, the IC50 in the assay with H3K9AC (HT1080 cells) (H3K9AC sandwich ELISA) came to 4.97 nM; with MM.1S cells (Homo sapiens, MM1.S, 240 h), 34.2 nM.

In the case of `Cc1cc(NS(C)(=O)=O)n(-c2ccc(O[C@@H]3CC[C@@H](NC(=O)[C@@]4(F)CNC5(CCC5)C4)C3)c(-c3cccc(F)c3C3CCC3)c2)n1` (single isomer, unassigned) [Example L3], the Ki at KAT2A (setting [1]) was 0.21 nM. For the same compound, the IC50 in the assay with H3K9AC (HT1080 cells) (setting [2]) is 6.9 nM; with MM.1S cells (Homo sapiens, MM1.S, 240 h) it was 43.4 nM.

Take `CC(C)c1c(F)cccc1-c1cc(CC(=O)O)ccc1O[C@@H]1CC[C@@H](NC(=O)[C@@]2(F)CNC3(CCC3)C2)C1` [Example A32, [3′-fluoro-6-{[(1R,3R)-3-{[(7S)-7-fluoro-5-azaspiro[3.4]octane-7-carbonyl]amino}cyclopentyl]oxy}-2′-(propan-2-yl)[1,1′-biphenyl]-3-yl]acetic acid]: the Ki at KAT2A (setting [1]) amounted to 0.84 nM. The IC50 was 4.5 nM in the assay with H3K9AC (HT1080 cells) (setting [2]) and 31.3 nM in the assay on MM.1S cells (Homo sapiens, MM1.S, 240 h).

Regarding `CC(C)c1ccccc1-c1cc(C(=O)O)ccc1O[C@@H]1CC[C@@H](NC(=O)[C@@]2(F)CNC3(CCC3)C2)C1` [Example A39, 6-{[(1R,3R)-3-{[(7S)-7-fluoro-5-azaspiro[3.4]octane-7-carbonyl]amino}cyclopentyl]oxy}-2′-(propan-2-yl)[1,1′-biphenyl]-3-carboxylic acid], on KAT2A (setting [1]), the Ki is 0.35 nM. The IC50 amounted to 6.4 nM in the assay on H3K9AC (HT1080 cells) (setting [2]) and 29.7 nM in the assay on MM.1S cells (Homo sapiens, MM1.S, 240 h).

`CC1(S(=O)(=O)NC(=O)Cc2ccc(O[C@@H]3CC[C@@H](NC(=O)[C@@]4(F)CNC5(CCC5)C4)C3)c(-c3cccc(F)c3C3CCC3)c2)CC1` [Example B35, (7ξ)-N-[(1R,3R)-3-({2′-cyclobutyl-3′-fluoro-5-[2-(1-methylcyclopropane-1-sulfonamido)-2-oxoethyl][1,1′-biphenyl]-2-yl}oxy)cyclopentyl]-7-fluoro-5-azaspiro[3.4]octane-7-carboxamide]: at KAT2A (setting [1]), the Ki turned out to be 0.04 nM. Moreover, the IC50 is 0.6 nM in the assay on H3K9AC (HT1080 cells) (setting [2]) and 1.3 nM with MM.1S cells (Homo sapiens, MM1.S, 240 h).

Take `CC(C)(C(=O)NS(C)(=O)=O)c1ccc(O[C@@H]2CC[C@@H](NC(=O)[C@@]3(F)CNC4(CCC4)C3)C2)c(-c2cccc(F)c2C2CCC2)c1` [Example C1, (7S)—N-{(1R,3R)-3-[(2′-cyclobutyl-3′-fluoro-5-{1-[(methanesulfonyl)amino]-2-methyl-1-oxopropan-2-yl}[1,1′-biphenyl]-2-yl)oxy]cyclopentyl}-7-fluoro-5-azaspiro[3.4]octane-7-carboxamide]: the Ki on KAT2A (setting [1]) turned out to be 0.43 nM. Besides, the IC50 in the assay with H3K9AC (HT1080 cells) (setting [2]) was 18 nM; in the assay on MM.1S cells (Homo sapiens, MM1.S, 240 h) it was 36.8 nM.

Turning to `CN(C)S(=O)(=O)NC(=O)C(C)(C)c1ccc(O[C@@H]2CC[C@@H](NC(=O)[C@@]3(F)CNC4(CCC4)C3)C2)c(-c2cccc(F)c2C2CCC2)c1` [Example C2, (7S)-N-{(1R,3R)-3-[(2′-cyclobutyl-5-{1-[(dimethylsulfamoyl)amino]-2-methyl-1-oxopropan-2-yl}-3′-fluorobiphenyl-2-yl)oxy]cyclopentyl}-7-fluoro-5-azaspiro[3.4]octane-7-carboxamide], affinity at KAT2A (setting [3]) was put at a Ki of 0.05 nM. Moreover, the IC50 in the assay with H3K9AC (HT1080 cells) (setting [2]) amounted to 3.56 nM; with MM.1S cells (Homo sapiens, MM1.S, 240 h), 5.37 nM.

For the compound `CCc1ccccc1-c1cc(C(C)(C)C(=O)NS(=O)(=O)C(C)C)ccc1O[C@@H]1CC[C@@H](NC(=O)[C@@]2(F)CNC3(CCC3)C2)C1` [Example C46, (7S)-N-[(1R,3R)-3-({2′-ethyl-5-[2-methyl-1-oxo-1-(propane-2-sulfonamido)propan-2-yl][1,1′-biphenyl]-2-yl}oxy)cyclopentyl]-7-fluoro-5-azaspiro[3.4]octane-7-carboxamide], the Ki at KAT2A (setting [1]) came to 2.16 nM. Further, the IC50 was 7.4 nM in the assay with H3K9AC (HT1080 cells) (setting [2]) and 62.9 nM in the assay with MM.1S cells (Homo sapiens, MM1.S, 240 h).

Turning to `CC(C)c1ccccc1-c1cc(C(C)(C)C(=O)NS(=O)(=O)C(C)C)ccc1O[C@@H]1CC[C@@H](NC(=O)[C@@]2(F)CNC3(CCC3)C2)C1` [Example C47, (7S)-7-fluoro-N-[(1R,3R)-3-({5-[2-methyl-1-oxo-1-(propane-2-sulfonamido)propan-2-yl]-2′-(propan-2-yl)[1,1′-biphenyl]-2-yl}oxy)cyclopentyl]-5-azaspiro[3.4]octane-7-carboxamide], at KAT2A (setting [1]), the Ki worked out at 0.33 nM. The IC50 is 2.9 nM in the assay on H3K9AC (HT1080 cells) (setting [2]) and 14.3 nM in the assay on MM.1S cells (Homo sapiens, MM1.S, 240 h).

`CCc1ccccc1-c1cc(CC(=O)NS(=O)(=O)C2(C)CC2)ccc1O[C@@H]1CC[C@@H](NC(=O)[C@@]2(F)CNC3(CCC3)C2)C1` [Example C51, (7S)-N-[(1R,3R)-3-({2′-ethyl-5-[2-(1-methylcyclopropane-1-sulfonamido)-2-oxoethyl][1,1′-biphenyl]-2-yl}oxy)cyclopentyl]-7-fluoro-5-azaspiro[3.4]octane-7-carboxamide]: the Ki at KAT2A (setting [1]) was 0.4 nM. In addition, the IC50 with H3K9AC (HT1080 cells) (setting [2]) stood at 3 nM; in the assay with MM.1S cells (Homo sapiens, MM1.S, 240 h) it was 4 nM.

Regarding `CC(C)c1ccccc1-c1cc(CC(=O)NS(=O)(=O)C2(C)CC2)ccc1O[C@@H]1CC[C@@H](NC(=O)[C@@]2(F)CNC3(CCC3)C2)C1` [Example C54, (7S)-7-fluoro-N-[(1R,3R)-3-({5-[2-(1-methylcyclopropane-1-sulfonamido)-2-oxoethyl]-2′-(propan-2-yl)[1,1′-biphenyl]-2-yl}oxy)cyclopentyl]-5-azaspiro[3.4]octane-7-carboxamide], at KAT2A (setting [1]), the Ki stood at 0.04 nM. Also, the IC50 is 0.9 nM in the assay on H3K9AC (HT1080 cells) (setting [2]) and 1.4 nM in the assay with MM.1S cells (Homo sapiens, MM1.S, 240 h).

In general, Ki refers to the equilibrium dissociation constant of an inhibitor or competing ligand from its target. The IC50 is the midpoint of a concentration-inhibition curve. A lower IC50 goes with greater potency.

These data come from patent US20250188030A1, “Biphenyl and Phenylpyridine Compounds” (Pfizer Inc., priority 2023, published 2025).
